According to US20060223775A1 (priority 1992, published 2006):

Tests used:
Assay type in all cases: cell-based
[1] = system: normal (NHF) human fibroblast; assay: Cell killing mediated by MVM-TK virions and gancyclovir (WST-1 colorimetric assay); conditions: mock or MVM-TK infected, WST-1, daily
Procedure: (§1) The efficiency and selectivity of cells killing mediated by the MVM/P387-TK virions and gancyclovir were assessed by infecting normal (NHF) and transformed (NBK) human fibroblast. The results of said experiments are described in the enclosed FIGS. 8 and 9.
(§2) Cell growth was daily monitored with the WST-1 colorimetric assay (Boehringer).
(§3) In FIG. 9, NHF and NBK cells were infected at different MoI and the cell survival was assessed after 4 days with the WST-1 assay in presence or absence of GCV.

[2] = system: transformed (NBK) human fibroblast; assay: as above; conditions: WST-1, daily
Procedure: as §1, §2, §3

[3] = system: luciferase gene under the control of a promoter activated by tTA; assay: Luciferase expression in clone NBK.MZ.tTA-2 electroporated with pUHC13-1
Procedure: Selected stably transfected NBK324 clones (G418 selection) were assayed for luciferase expression upon transient transfection (in absence or presence of tetracycline) with the plasmid pUHC13-1 (Gossen and Bujard). The plasmid pUHC13-1 is an expression vector containing the luciferase gene under the control of a promoter activated by tTA.
The best clone selected, NBK.MZ.tTA-2, upon electroporation at 230 volts and 1050 μF with 4 μg of pUHC13-1 is charaterized by the following results (expressed in relative luciferase unit rlu/μg protein): […]

| Compound | cell growth at different GCV concentrations [1] | GCV concentration at which growth was severely suppressed ([2]; MVM-TK infected NBK) [µg/mL] | cell growth at different GCV concentrations ([2]; mock infected NBK) | luciferase expression (relative luciferase unit) ([3]; tetracycline 10 ng ml, 4 μg pUHC13-1, 230 volts, 1050 μF) [rlu/μg protein] | luciferase expression (relative luciferase unit) ([3]; tetracycline 100 ng/ml, 4 μg pUHC13-1) [rlu/μg protein] | luciferase expression (relative luciferase unit) ([3]; tetracycline 1 μg/ml, 4 μg pUHC13-1) [rlu/μg protein] |
| --- | --- | --- | --- | --- | --- | --- |
| Nc1nc(O)c2ncn(COC(CO)CO)c2n1 [GCV, gancyclovir] | not affected | ≥ 3 | not affected |  |  |  |
| CN(C)[C@@H]1C(O)=C(C(N)=O)C(=O)[C@@]2(O)C(O)=C3C(=O)c4c(O)cccc4[C@@](C)(O)[C@H]3C[C@@H]12 [tetracycline] |  |  |  | 19212 | 2268 | 1568 |
